Experimental data reported in patent US20040214238A1 (priority 2003, published 2004).
Several values for one entry are separate records, joined by “and”; a condition that tells them apart may be missing. Identical values can stand only once.

Columns and labels:
N-type calcium channel = details: in vivo; cited from earlier work
[1] = target: vanilloid receptor (VR1) in DRG neurons (Rattus norvegicus, UniProt O35433); experiment: capsaicin screening by whole cell voltage clamp at -60 mV; details: 2 μM capsaicin, 128 responsive neurons
Experimental: Viable neurons were identified using whole cell voltage clamp recordings based on the presence of robust voltage-gated sodium and potassium currents. Neurons were then exposed to 2 μM capsaicin (Sigma). After exposure, the bath was washed and the cell allowed to recover. Capsaicin-responsive cells had to recover after wash to be included. Capsaicin-non-responsive neurons were expose at least twice to capsaicin before the cell was collected and counted as capsaicin-non-responsive. Coverslips in the study were limited to two exposures of capsaicin to avoid desensitization. 1-2 MΩ microelectrodes were filled with an internal solution consisting of 90 mM KCl, 10 mM NaCl, 5 mM MgCl2, 40 mM HEPES, 5 mM EGTA and the pH was adjusted to 7.4 with KOH. The bath solution contained 140 mM NaCl, 5 mM KCl, 2 mM CaCl2, 0.5 mM MgCl2, 10 mM HEPES, and 15 mM Dextrose. […]
Viable neurons were identified by the presence of robust voltage-gated sodium and potassium currents during brief depolarizations from a holding potential of −80 mV. […] Capsaicin-non-responsive neurons were exposed to capsaicin at least twice before the cell was harvested and counted as capsaicin-non-responsive. […] For capsaicin screening, currents were recorded using 1-2 MΩ microelectrodes filled with an internal solution consisting of 90 mM KCl, 10 mM NaCl, 5 mM MgCl2 40 mM HEPES, and 5 mM EGTA adjusted to a pH of 7.4 with KOH. […]

CaV1.3 L-type channels = details: cited from earlier work
[2] = system: N-type calcium current in neurons of the dorsal root ganglia; assay type: cell-based, rat

vanilloid receptor (VR1) in DRG neurons, sequence (O35433 whole entry): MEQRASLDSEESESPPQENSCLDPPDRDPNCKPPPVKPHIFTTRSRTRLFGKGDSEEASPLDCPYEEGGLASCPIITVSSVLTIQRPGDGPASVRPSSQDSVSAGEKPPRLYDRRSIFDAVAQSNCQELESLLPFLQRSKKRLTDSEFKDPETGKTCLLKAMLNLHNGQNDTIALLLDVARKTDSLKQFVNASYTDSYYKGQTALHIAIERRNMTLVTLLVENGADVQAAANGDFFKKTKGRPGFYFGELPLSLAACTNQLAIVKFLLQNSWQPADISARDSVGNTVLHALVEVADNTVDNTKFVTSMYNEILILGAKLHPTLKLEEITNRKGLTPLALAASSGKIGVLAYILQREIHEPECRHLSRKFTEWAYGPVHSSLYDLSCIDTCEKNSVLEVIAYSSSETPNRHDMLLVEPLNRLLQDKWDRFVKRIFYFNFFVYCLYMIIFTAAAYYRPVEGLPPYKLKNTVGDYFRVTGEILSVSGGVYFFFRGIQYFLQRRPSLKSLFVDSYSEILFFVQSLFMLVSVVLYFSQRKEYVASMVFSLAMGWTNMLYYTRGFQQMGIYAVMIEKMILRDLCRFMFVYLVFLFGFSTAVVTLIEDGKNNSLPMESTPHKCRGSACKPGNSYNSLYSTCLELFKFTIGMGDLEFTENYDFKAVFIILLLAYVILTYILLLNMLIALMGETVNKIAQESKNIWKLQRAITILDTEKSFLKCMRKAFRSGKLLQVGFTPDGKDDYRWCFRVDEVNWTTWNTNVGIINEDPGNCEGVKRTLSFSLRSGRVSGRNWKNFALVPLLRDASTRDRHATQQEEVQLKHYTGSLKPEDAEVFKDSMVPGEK

CSCC[C@@H]1NC(=O)[C@H](CC(C)C)NC(=O)[C@H](CCCNC(=N)N)NC(=O)[C@H](CO)NC(=O)[C@@H]2CSSC[C@@H]3NC(=O)[C@H](CO)NC(=O)CNC(=O)[C@H]([C@@H](C)O)NC(=O)[C@H](CSSC[C@H](N)C(=O)N[C@@H](CCCCN)C(=O)NCC(=O)N[C@@H](CCCCN)C(=O)NCC(=O)N[C@@H](C)C(=O)N[C@@H](CCCCN)C(=O)N2)NC(=O)[C@H](CSSC[C@@H](C(N)=O)NC(=O)[C@H](CCCCN)NC(=O)CNC(=O)[C@H](CO)NC(=O)[C@H](CCCNC(=N)N)NC3=O)NC(=O)[C@H](CC(=O)O)NC(=O)[C@H](Cc2ccc(O)cc2)NC1=O [MVIIA]
analgesic activity (N-type calcium channel): powerful analgesic
side effects as analgesic (N-type calcium channel): undesirable side effects

COc1cc(CNC(=O)CCCC/C=C/C(C)C)ccc1O [capsaicin]
average amplitude of capsaicin-induced inward current [1]: 986±118 pA

ω-conotoxin GVIA (CKSPGSSCSPTSYNCCRSCNPYTKRCY) [ω-Ctx GVIA]
effect on CaV1.3 L-type current (CaV1.3 L-type channels): inhibited by high concentrations
effect on neuronal CaV1.3 L-type channels (CaV1.3 L-type channels): not ω-Ctx GVIA-sensitive
ω-Ctx GVIA-sensitive current as % of the total whole cell calcium current [2]: 71±2% and 68±2%
ω-Ctx GVIA-sensitive, N-type current as component of the total Ca current [2]: ~70%
